Test results taken from PubChem BioAssay (NCI).
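Step 1: Grow cells in 96-well plates. Step 2: Expose to compound for 48 hours at 5 concentrations. Step 3: Interpolate endpoints linearly; if unreached, use highest concentration. Abbreviation: GI50, concentration required for 50% inhibition of growth. TGI: total growth inhibition.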

Legend:
Test in all cases: NCI tumour cell line growth inhibition, 48 h
[1] = tested on: SR leukemia
[2] = tested on: SK-OV-3 ovarian
[3] = tested on: A498 renal
[4] = tested on: 786-0 renal
[5] = tested on: CAKI-1 renal
[6] = tested on: ACHN renal
[7] = tested on: HOP-92 NSCLC
[8] = tested on: IGROV1 ovarian
[9] = tested on: SK-MEL-2 melanoma
[10] = tested on: TK-10 renal

Row | Structure (SMILES) | GI50 [1] [µM] | TGI [1] [µM] | GI50 [2] [µM] | TGI [2] [µM] | GI50 [3] [µM] | TGI [3] [µM] | GI50 [4] [µM] | TGI [4] [µM] | GI50 [5] [µM] | TGI [5] [µM] | GI50 [6] [µM] | TGI [6] [µM] | GI50 [7] [µM] | TGI [7] [µM] | GI50 [8] [µM] | TGI [8] [µM] | GI50 [9] [µM] | TGI [9] [µM] | GI50 [10] [µM] | TGI [10] [µM]
1 | O=S(=O)(Nc1cc(Br)c(O)c2ccccc12)c1ccc(F)cc1 | 4.24 | 34.3 | 14.7 | 35.9 | 17.3 | 33.3 | 3.35 | 11.3 | 7.7 | 20.5 | 3.31 | 14.1 | 1.95 | 4.54 | 2.59 | 5.51 | 3.42 | 16.2 | 18.4 | 32.7
2 | N#CC(C#N)=Cc1c(-c2ccccc2)[nH]c2ccccc12 | > 100 | > 100 | 5.57 | > 80.7 | 2.97 | 22.4 | 8.55 | > 64.1 | 5.66 | 48.7 | 7.07 | > 55.9 | 5.6 | > 100 | 0.743 | 31.9 | 19.1 | > 70.6 | 5.23 | > 75.1
3 | N=Nc1c(OC(=O)Nc2ccccc2)[nH]c2ccccc12 |  | > 100 |  | 36.8 |  | 34.7 |  | 32.6 |  | 32.8 |  | 36.6 |  | 55.6 |  | 42.2 |  | 44.6 |  | 60.8
4 | COc1cc(-c2nn(-c3ccc(NC(=O)Nc4ccc(Cl)c(Cl)c4)cc3)cc2-c2ccncc2)ccc1Cl | 3.77 | > 100 | 3.96 | > 100 | 2 | 8.27 | 2.4 | 5.43 | 2.59 | 7.68 | 3.35 | > 100 | 2.35 | 11.9 | 4.88 | > 100 | 3.44 | 39.7 | 6.5 | > 100
5 | O=C1c2cccc3cc([N+](=O)[O-])cc(c23)C(=O)N1NC1=NCCN1 |  | > 100 |  | > 100 |  | > 100 |  | > 100 |  | > 100 |  | > 100 |  | > 100 |  | > 100 |  | > 100 |  | > 100
6 | Oc1c(C(Nc2cccc3ccccc23)c2ccccc2)ccc2cccnc12 (stereo not given) | 2.76 | 22.5 | 5.9 | > 100 | 3.27 | 23.9 | 3.37 | 76.3 | 2.15 | 6.54 | 3.55 | 28.6 | 2.95 | 36.3 | 3.79 | 11 | 6.58 | > 100 | 11 | 45.8
7 | CCNC(C)(C)C(SS)c1ccc(Br)cc1 (stereo not given) |  | > 100 |  | > 100 |  | > 100 |  | 49.6 |  | > 100 |  | > 100 |  | > 100 |  | > 100 |  | > 100 |  | > 100
8 | CN(Cc1cnc(N)nc1N)c1ccc(C(=O)O)cc1 | > 100 | > 100 | > 100 | > 100 | 4.25 | > 100 | > 100 | > 100 | > 100 | > 100 | > 100 | > 100 | > 100 | > 100 | > 100 | > 100 | > 100 | > 100 | > 100 | > 100
9 | NC1=NC(c2ccc(Cl)cc2)N(c2ccc(S(=O)(=O)Nc3ncccn3)cc2)C(N)=N1 (stereo not given) |  | > 100 |  | > 100 |  | > 100 |  | > 100 |  | > 100 |  | > 100 |  | > 100 |  | > 100 |  | > 100 |  | > 100
10 | Clc1ccccc1C(n1ncc2ccccc21)n1ncc2ccccc21 |  | > 100 |  | > 10 |  | > 100 |  | > 100 |  | > 100 |  | > 100 |  | > 100 |  | > 10 |  | > 100 |  | > 100
